Laboratory results published in BigSolDB 2.1.

O=c1nc[nH]c2[nH]ncc12
solubility (mole fraction) (in 1,4-dioxane, 283.15 K): 2.91e-05
solubility (mole fraction) (in 1,4-dioxane, 288.15 K): 3.71e-05
solubility (mole fraction) (in 1,4-dioxane, 293.15 K): 4.64e-05
solubility (mole fraction) (in 1,4-dioxane, 298.15 K): 5.74e-05
solubility (mole fraction) (in 1,4-dioxane, 303.15 K): 7.03e-05
solubility (mole fraction) (in 1,4-dioxane, 308.15 K): 8.43e-05
solubility (mole fraction) (in 1,4-dioxane, 313.15 K): 0.000102
solubility (mole fraction) (in 1,4-dioxane, 318.15 K): 0.000123
solubility (mole fraction) (in 1,4-dioxane, 323.15 K): 0.000148
solubility (mole fraction) (in 1,4-dioxane, 328.15 K): 0.000178
solubility (mole fraction) (in 1,4-dioxane, 333.15 K): 0.000204
solubility (mole fraction) (in 2-butanone, 278.15 K): 0.000783
solubility (mole fraction) (in 2-butanone, 283.15 K): 0.000954
solubility (mole fraction) (in 2-butanone, 288.15 K): 0.00115
solubility (mole fraction) (in 2-butanone, 293.15 K): 0.00138
solubility (mole fraction) (in 2-butanone, 298.15 K): 0.00165
solubility (mole fraction) (in 2-butanone, 303.15 K): 0.00196
solubility (mole fraction) (in 2-butanone, 308.15 K): 0.00231
solubility (mole fraction) (in 2-butanone, 313.15 K): 0.00271
solubility (mole fraction) (in 2-butanone, 318.15 K): 0.00316
solubility (mole fraction) (in 2-butanone, 323.15 K): 0.00367
solubility (mole fraction) (in 2-butanone, 328.15 K): 0.00425
solubility (mole fraction) (in 2-butanone, 333.15 K): 0.00491
solubility (mole fraction) (in DMF, 278.15 K): 0.00223
solubility (mole fraction) (in DMF, 283.15 K): 0.00266
solubility (mole fraction) (in DMF, 288.15 K): 0.00316
solubility (mole fraction) (in DMF, 293.15 K): 0.00373
solubility (mole fraction) (in DMF, 298.15 K): 0.00437
solubility (mole fraction) (in DMF, 303.15 K): 0.00509
solubility (mole fraction) (in DMF, 308.15 K): 0.00591
solubility (mole fraction) (in DMF, 313.15 K): 0.00683
solubility (mole fraction) (in DMF, 318.15 K): 0.00785
solubility (mole fraction) (in DMF, 323.15 K): 0.00898
solubility (mole fraction) (in DMF, 328.15 K): 0.01
solubility (mole fraction) (in DMF, 333.15 K): 0.0121
solubility (mole fraction) (in NMP, 278.15 K): 0.0151
solubility (mole fraction) (in NMP, 283.15 K): 0.017
solubility (mole fraction) (in NMP, 288.15 K): 0.02
solubility (mole fraction) (in NMP, 293.15 K): 0.022
solubility (mole fraction) (in NMP, 298.15 K): 0.0251
solubility (mole fraction) (in NMP, 303.15 K): 0.0281
solubility (mole fraction) (in NMP, 308.15 K): 0.032
solubility (mole fraction) (in NMP, 313.15 K): 0.035
solubility (mole fraction) (in NMP, 318.15 K): 0.0391
solubility (mole fraction) (in NMP, 323.15 K): 0.0431
solubility (mole fraction) (in NMP, 328.15 K): 0.0481
solubility (mole fraction) (in NMP, 333.15 K): 0.0531
solubility (mole fraction) (in acetone, 278.15 K): 0.000653
solubility (mole fraction) (in acetone, 283.15 K): 0.000797
solubility (mole fraction) (in acetone, 288.15 K): 0.000966
solubility (mole fraction) (in acetone, 293.15 K): 0.00116
solubility (mole fraction) (in acetone, 298.15 K): 0.00139
solubility (mole fraction) (in acetone, 303.15 K): 0.00166
solubility (mole fraction) (in acetone, 308.15 K): 0.00196
solubility (mole fraction) (in acetone, 313.15 K): 0.00231
solubility (mole fraction) (in acetone, 318.15 K): 0.0027
solubility (mole fraction) (in acetone, 323.15 K): 0.00314
solubility (mole fraction) (in acetone, 328.15 K): 0.00365
solubility (mole fraction) (in acetone, 333.15 K): 0.00421
solubility (mole fraction) (in acetonitrile, 278.15 K): 9.6e-05
solubility (mole fraction) (in acetonitrile, 283.15 K): 0.000117
solubility (mole fraction) (in acetonitrile, 288.15 K): 0.000141
solubility (mole fraction) (in acetonitrile, 293.15 K): 0.00017
solubility (mole fraction) (in acetonitrile, 298.15 K): 0.000204
solubility (mole fraction) (in acetonitrile, 303.15 K): 0.000239
solubility (mole fraction) (in acetonitrile, 308.15 K): 0.000286
solubility (mole fraction) (in acetonitrile, 313.15 K): 0.000331
solubility (mole fraction) (in acetonitrile, 318.15 K): 0.000384
solubility (mole fraction) (in acetonitrile, 323.15 K): 0.000448
solubility (mole fraction) (in acetonitrile, 328.15 K): 0.000522
solubility (mole fraction) (in acetonitrile, 333.15 K): 0.00059
solubility (mole fraction) (in cyclohexane, 283.15 K): 4.74e-07
solubility (mole fraction) (in cyclohexane, 288.15 K): 6.38e-07
solubility (mole fraction) (in cyclohexane, 293.15 K): 7.68e-07
solubility (mole fraction) (in cyclohexane, 298.15 K): 1.02e-06
solubility (mole fraction) (in cyclohexane, 303.15 K): 1.24e-06
solubility (mole fraction) (in cyclohexane, 308.15 K): 1.61e-06
solubility (mole fraction) (in cyclohexane, 313.15 K): 1.97e-06
solubility (mole fraction) (in cyclohexane, 318.15 K): 2.48e-06
solubility (mole fraction) (in cyclohexane, 323.15 K): 3.05e-06
solubility (mole fraction) (in cyclohexane, 328.15 K): 3.77e-06
solubility (mole fraction) (in cyclohexane, 333.15 K): 4.37e-06
solubility (mole fraction) (in ethanol, 278.15 K): 2.46e-05
solubility (mole fraction) (in ethanol, 283.15 K): 3.28e-05
solubility (mole fraction) (in ethanol, 288.15 K): 4.27e-05
solubility (mole fraction) (in ethanol, 293.15 K): 5.5e-05
solubility (mole fraction) (in ethanol, 298.15 K): 6.99e-05
solubility (mole fraction) (in ethanol, 303.15 K): 8.97e-05
solubility (mole fraction) (in ethanol, 308.15 K): 0.000109
solubility (mole fraction) (in ethanol, 313.15 K): 0.000139
solubility (mole fraction) (in ethanol, 318.15 K): 0.000172
solubility (mole fraction) (in ethanol, 323.15 K): 0.000211
solubility (mole fraction) (in ethanol, 328.15 K): 0.000258
solubility (mole fraction) (in ethanol, 333.15 K): 0.00031
solubility (mole fraction) (in isopropanol, 278.15 K): 3.64e-05
solubility (mole fraction) (in isopropanol, 283.15 K): 4.68e-05
solubility (mole fraction) (in isopropanol, 288.15 K): 5.84e-05
solubility (mole fraction) (in isopropanol, 293.15 K): 7.35e-05
solubility (mole fraction) (in isopropanol, 298.15 K): 9.2e-05
solubility (mole fraction) (in isopropanol, 303.15 K): 0.000112
solubility (mole fraction) (in isopropanol, 308.15 K): 0.000138
solubility (mole fraction) (in isopropanol, 313.15 K): 0.000171
solubility (mole fraction) (in isopropanol, 318.15 K): 0.000204
solubility (mole fraction) (in isopropanol, 323.15 K): 0.000245
solubility (mole fraction) (in isopropanol, 328.15 K): 0.000296
solubility (mole fraction) (in isopropanol, 333.15 K): 0.000346
solubility (mole fraction) (in methanol, 278.15 K): 2.05e-05
solubility (mole fraction) (in methanol, 283.15 K): 2.7e-05
solubility (mole fraction) (in methanol, 288.15 K): 3.61e-05
solubility (mole fraction) (in methanol, 293.15 K): 4.65e-05
solubility (mole fraction) (in methanol, 298.15 K): 5.97e-05
solubility (mole fraction) (in methanol, 303.15 K): 7.6e-05
solubility (mole fraction) (in methanol, 308.15 K): 9.62e-05
solubility (mole fraction) (in methanol, 313.15 K): 0.00012
solubility (mole fraction) (in methanol, 318.15 K): 0.000152
solubility (mole fraction) (in methanol, 323.15 K): 0.000189
solubility (mole fraction) (in methanol, 328.15 K): 0.000235
solubility (mole fraction) (in methanol, 333.15 K): 0.000283
solubility (mole fraction) (in n-butanol, 278.15 K): 6.63e-05
solubility (mole fraction) (in n-butanol, 283.15 K): 8.13e-05
solubility (mole fraction) (in n-butanol, 288.15 K): 0.0001
solubility (mole fraction) (in n-butanol, 293.15 K): 0.000124
solubility (mole fraction) (in n-butanol, 298.15 K): 0.000151
solubility (mole fraction) (in n-butanol, 303.15 K): 0.000184
solubility (mole fraction) (in n-butanol, 308.15 K): 0.000219
solubility (mole fraction) (in n-butanol, 313.15 K): 0.00026
solubility (mole fraction) (in n-butanol, 318.15 K): 0.000312
solubility (mole fraction) (in n-butanol, 323.15 K): 0.000366
solubility (mole fraction) (in n-butanol, 328.15 K): 0.000429
solubility (mole fraction) (in n-butanol, 333.15 K): 0.000496
solubility (mole fraction) (in n-heptanol, 278.15 K): 0.000127
solubility (mole fraction) (in n-heptanol, 283.15 K): 0.000149
solubility (mole fraction) (in n-heptanol, 288.15 K): 0.000175
solubility (mole fraction) (in n-heptanol, 293.15 K): 0.000205
solubility (mole fraction) (in n-heptanol, 298.15 K): 0.000239
solubility (mole fraction) (in n-heptanol, 303.15 K): 0.000276
solubility (mole fraction) (in n-heptanol, 308.15 K): 0.000318
solubility (mole fraction) (in n-heptanol, 313.15 K): 0.000365
solubility (mole fraction) (in n-heptanol, 318.15 K): 0.000418
solubility (mole fraction) (in n-heptanol, 323.15 K): 0.000473
solubility (mole fraction) (in n-heptanol, 328.15 K): 0.000544
solubility (mole fraction) (in n-heptanol, 333.15 K): 0.000614
solubility (mole fraction) (in n-hexanol, 278.15 K): 8.05e-05
solubility (mole fraction) (in n-hexanol, 283.15 K): 9.84e-05
solubility (mole fraction) (in n-hexanol, 288.15 K): 0.000119
solubility (mole fraction) (in n-hexanol, 293.15 K): 0.000145
solubility (mole fraction) (in n-hexanol, 298.15 K): 0.000177
solubility (mole fraction) (in n-hexanol, 303.15 K): 0.000214
solubility (mole fraction) (in n-hexanol, 308.15 K): 0.000259
solubility (mole fraction) (in n-hexanol, 313.15 K): 0.000302
solubility (mole fraction) (in n-hexanol, 318.15 K): 0.00036
solubility (mole fraction) (in n-hexanol, 323.15 K): 0.00042
solubility (mole fraction) (in n-hexanol, 328.15 K): 0.000499
solubility (mole fraction) (in n-hexanol, 333.15 K): 0.000566
solubility (mole fraction) (in n-propanol, 278.15 K): 4.85e-05
solubility (mole fraction) (in n-propanol, 283.15 K): 6.16e-05
solubility (mole fraction) (in n-propanol, 288.15 K): 7.66e-05
solubility (mole fraction) (in n-propanol, 293.15 K): 9.52e-05
solubility (mole fraction) (in n-propanol, 298.15 K): 0.000114
solubility (mole fraction) (in n-propanol, 303.15 K): 0.00014
solubility (mole fraction) (in n-propanol, 308.15 K): 0.000164
solubility (mole fraction) (in n-propanol, 313.15 K): 0.000201
solubility (mole fraction) (in n-propanol, 318.15 K): 0.000247
solubility (mole fraction) (in n-propanol, 323.15 K): 0.000293
solubility (mole fraction) (in n-propanol, 328.15 K): 0.000349
solubility (mole fraction) (in n-propanol, 333.15 K): 0.000403
solubility (mole fraction) (in water, 278.15 K): 8.71e-06
solubility (mole fraction) (in water, 283.15 K): 1.18e-05
solubility (mole fraction) (in water, 288.15 K): 1.57e-05
solubility (mole fraction) (in water, 293.15 K): 2.12e-05
solubility (mole fraction) (in water, 298.15 K): 2.94e-05
solubility (mole fraction) (in water, 303.15 K): 3.83e-05
solubility (mole fraction) (in water, 308.15 K): 5.01e-05
solubility (mole fraction) (in water, 313.15 K): 6.44e-05
solubility (mole fraction) (in water, 318.15 K): 8.32e-05
solubility (mole fraction) (in water, 323.15 K): 0.000107
solubility (mole fraction) (in water, 328.15 K): 0.000134
solubility (mole fraction) (in water, 333.15 K): 0.000167
